From PubChem BioAssay AID330 (DTP/NCI, 2004) come the findings set out here.

Molecules are shown by their SMILES. Several values for one entry are separate records, joined by “and”; a condition that tells them apart may be missing. Identical values can stand only once. Toxic doses and inconclusive results are not listed.

For the test, the system named is P388 leukemia ip, CD2F1 mice, survival T/C. Put plainly: NCI In Vivo Anticancer Drug Screen. Data for tumor model P388 Leukemia (intraperitoneal) in CD2F1 (CDF1) mice. As to conditions: endpoint: median survival time, higher = longer survival. The gist of the method:
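Mice carrying the transplanted tumor received test compound or vehicle. Survival was recorded in each group, and the value is the treated-group measurement divided by that of the vehicle-treated control group.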

Setting [1] is: dose: 60.0 mg/kg/injection, schedule: Q01DX005 (ip), vehicle: Klucel (hydroxypropylcellulose) (HPC).
The mark [2] stands for this setting: dose: 120.0 mg/kg/injection, schedule: Q01DX005 (ip), vehicle: Klucel (hydroxypropylcellulose) (HPC).
[3] abbreviates: dose: 240.0 mg/kg/injection, schedule: Q01DX005 (ip), vehicle: Klucel (hydroxypropylcellulose) (HPC).
The mark [4] stands for this setting: dose: 100.0 mg/kg/injection, schedule: Q01DX009 (ip), vehicle: saline.
Setting [5] is: dose: 50.0 mg/kg/injection, schedule: Q01DX005 (ip), vehicle: saline with Tween-80.
The mark [6] stands for this setting: dose: 100.0 mg/kg/injection, schedule: Q01DX005 (ip), vehicle: saline with Tween-80.
[7] abbreviates: dose: 200.0 mg/kg/injection, schedule: Q01DX005 (ip), vehicle: saline with Tween-80.
Where [8] appears, read: dose: 2.5 mg/kg/injection, schedule: Q01DX009 (ip), vehicle: saline.
[9] abbreviates: dose: 5.0 mg/kg/injection, schedule: Q01DX009 (ip), vehicle: saline.
Setting [10] is: dose: 50.0 mg/kg/injection, schedule: Q01DX009 (ip), vehicle: Klucel (hydroxypropylcellulose) (HPC).
Where [11] appears, read: dose: 100.0 mg/kg/injection, schedule: Q01DX009 (ip), vehicle: Klucel (hydroxypropylcellulose) (HPC).
Where [12] appears, read: dose: 200.0 mg/kg/injection, schedule: Q01DX009 (ip), vehicle: Klucel (hydroxypropylcellulose) (HPC).
[13] abbreviates: dose: 25.0 mg/kg/injection, schedule: Q01DX009 (ip), vehicle: saline with Tween-80.
The mark [14] stands for this setting: dose: 50.0 mg/kg/injection, schedule: Q01DX009 (ip), vehicle: saline with Tween-80.
[15] abbreviates: dose: 100.0 mg/kg/injection, schedule: Q01DX009 (ip), vehicle: saline with Tween-80.
[16] abbreviates: dose: 200.0 mg/kg/injection, schedule: Q01DX009 (ip), vehicle: saline with Tween-80.

Turning to `O=S(=O)(CCc1ccccc1)c1nc2ccccc2s1`, the T/C is 99 % of control under setting [1], 100 % of control under setting [2] and 101 % of control under setting [3].

`Cc1cc2c(cc1Cl)ncn2C`: the T/C by setting is: (dose: 50.0 mg/kg/injection, schedule: Q01DX009 (ip), vehicle: saline) 96 % of control; under setting [4], 112 % of control; (dose: 200.0 mg/kg/injection, schedule: Q01DX009 (ip), vehicle: saline) 118 % of control.

Take `O=C1CCC2C(C3SCCCS3)=CCN12` (stereo unspecified): the T/C by setting is: (dose: 60.0 mg/kg/injection, schedule: Q01DX005 (ip), vehicle: saline with Tween-80) 97 % of control; (dose: 120.0 mg/kg/injection, schedule: Q01DX005 (ip), vehicle: saline with Tween-80) 95 % of control; (dose: 240.0 mg/kg/injection, schedule: Q01DX005 (ip), vehicle: saline with Tween-80) 101 % of control.

Consider `CCCCN1CC(=O)N2CCCC(c3ccccc3)N2C(=O)C1` (stereo unspecified), for which the T/C was 103 % of control under setting [5], 105 % of control under setting [6] and 103 % of control under setting [7].

With `CCOC(=O)C[N+]1(C)C2CCC1CC(OC(=O)C(CO)c1ccccc1)C2` (stereo unspecified), the T/C is 100 % of control (dose: 12.5 mg/kg/injection, schedule: Q01DX009 (ip), vehicle: saline) and 100 % of control (dose: 25.0 mg/kg/injection, schedule: Q01DX009 (ip), vehicle: saline).

Turning to `OCNC(=S)c1ccccc1`, the T/C under setting [5] was 105 % of control and the T/C under setting [6] was 105 % of control.

Consider `CCN(CC)/C(N)=N/O`, for which the T/C is 95 % of control under setting [8]; 104 % of control under setting [9]; 102 % of control (dose: 10.0 mg/kg/injection, schedule: Q01DX009 (ip), vehicle: saline).

With `[Cl][Rh][Cl].[NH-]c1nc2c(ccc3ccccc32)s1.[NH-]c1nc2c(ccc3ccccc32)s1.[NH-]c1nc2c(ccc3ccccc32)s1.[NH-]c1nc2c(ccc3ccccc32)s1`, the T/C reads like this: (dose: 100.0 mg/kg/injection, schedule: Q04DX003 (ip), vehicle: saline) 108 % of control; (dose: 200.0 mg/kg/injection, schedule: Q04DX003 (ip), vehicle: saline) 109 % of control; (dose: 400.0 mg/kg/injection, schedule: Q04DX003 (ip), vehicle: saline) 105 % of control.

As to `FC(F)(F)c1ccccc1N=Cc1ccc(C=Nc2ccccc2C(F)(F)F)cc1`, the T/C is 98 % of control under setting [10] and 91 % of control under setting [11].

For `COc1ccc(C2=C(Cl)C(=O)N(c3ccccc3C)C(=O)C2(Cl)Cl)cc1`, the T/C (dose: 100.0 mg/kg/injection, schedule: Q04DX002 (ip), vehicle: Klucel (hydroxypropylcellulose) (HPC)) is 101 % of control; the T/C (dose: 200.0 mg/kg/injection, schedule: Q04DX002 (ip), vehicle: Klucel (hydroxypropylcellulose) (HPC)) was 112 % of control; the T/C (dose: 400.0 mg/kg/injection, schedule: Q04DX002 (ip), vehicle: Klucel (hydroxypropylcellulose) (HPC)) is 117 % of control.

`CCCCCCCC(=O)Nc1ncc([N+](=O)[O-])s1`: the T/C under setting [10] is 106 % of control, the T/C under setting [11] is 106 % of control and the T/C under setting [12] is 113 % of control.

In the case of `CN(C)CCC(=O)c1ccc([N+](=O)[O-])cc1`, the T/C was 94 % of control under setting [13], 113 % of control under setting [14], 108 % of control under setting [15] and 106 % of control under setting [16].

`C=C1C2CCC3C4(C)CC(OC5OC(CO)C(OS(=O)(=O)O)C(OS(=O)(=O)O)C5OC(=O)CC(C)C)CC(C(=O)O)(C(=O)O)C4CCC3(C2)C1O` (stereo unspecified): the T/C reads like this: (dose: 1.25 mg/kg/injection, schedule: Q01DX009 (ip), vehicle: saline) 117 % of control; under setting [8], 117 % of control; under setting [9], 114 % of control.

In the case of `[N-]=[N+]=NC1=CC(=O)C(c2ccccc2)=CC1=O`, the T/C by setting is: under setting [13], 100 % of control; under setting [14], 95 % of control; under setting [16], 103 % of control.

In the case of `CCN(CC)CCCC(C)Nc1cc(OC)c2nc(C)cc(Cl)c2c1OC` (stereo unspecified), the T/C is 87 % of control under setting [14], 87 % of control under setting [15] and 95 % of control under setting [16].

Turning to `CCOc1c(N=Nc2ccccc2[N+](=O)[O-])c(C)nn1C(=S)S`, the T/C runs as follows: (dose: 60.0 mg/kg/injection, schedule: Q01DX005 (ip), vehicle: Klucel + Tween-80) 103 % of control; (dose: 120.0 mg/kg/injection, schedule: Q01DX005 (ip), vehicle: Klucel + Tween-80) 97 % of control; (dose: 240.0 mg/kg/injection, schedule: Q01DX005 (ip), vehicle: Klucel + Tween-80) 92 % of control.

As to `CC1(C)OC[C@@H](N)[C@@H](O)CO1`, the T/C reads like this: (dose: 60.0 mg/kg/injection, schedule: Q01DX005 (ip), vehicle: saline) 104 % of control; (dose: 120.0 mg/kg/injection, schedule: Q01DX005 (ip), vehicle: saline) 104 % of control; (dose: 240.0 mg/kg/injection, schedule: Q01DX005 (ip), vehicle: saline) 118 % of control.

In the case of `CCC(=O)OC1(c2ccccc2)CCP(C)(=S)CC1` (stereo unspecified), the T/C reads like this: under setting [10], 97 % of control; under setting [11], 106 % of control; under setting [12], 101 % of control.

Take `CC(=O)OC1CC(=O)OC(C)(C)C2CC(=O)C3(C)C(CCC4(C)C(c5ccoc5)OC(=O)C5OC543)C12C` (stereo unspecified): the T/C is 99 % of control under setting [14], 97 % of control under setting [15] and 97 % of control under setting [16].

With `Nc1ccn([C@@H]2C=C(CO)[C@@H](O)[C@H]2O)c(=O)n1`, the T/C is, setting by setting: (dose: 0.5 mg/kg/injection, schedule: Q01DX009 (ip), vehicle: saline) 150 % of control; (dose: 1.0 mg/kg/injection, schedule: Q01DX009 (ip), vehicle: saline) 188 % of control; (dose: 2.25 mg/kg/injection, schedule: Q01DX009 (ip), vehicle: saline) 111 % of control and 87 % of control.

`COc1cc(/C=C2/C(=O)N(c3ccccc3)N=C2C)cc(OC)c1OC`: the T/C is, setting by setting: under setting [1], 108 % of control; under setting [2], 104 % of control; under setting [3], 105 % of control.

As for `CCCCCC(O)C1C(=O)OC(C)C(O)/C=C/C=C/C=C/C=C\C=C(\C)C(O)CC(O)CC(O)CC(O)CC(O)CC(O)CC1O` (stereo unspecified), the T/C runs as follows: (dose: 10.0 mg/kg/injection, schedule: Q04DX003 (ip), vehicle: other) 104 % of control; (dose: 20.0 mg/kg/injection, schedule: Q04DX003 (ip), vehicle: other) 95 % of control; under setting [5], 108 % of control; under setting [6], 107 % of control; under setting [7], 103 % of control.

Take `OC1(c2ccc(-c3ccc(-c4ccc(C5(O)C(c6ccccc6)=C(c6ccccc6)C(c6ccccc6)=C5c5ccccc5)cc4)cc3)cc2)C(c2ccccc2)=C(c2ccccc2)C(c2ccccc2)=C1c1ccccc1`: the T/C by setting is: (dose: 100.0 mg/kg/injection, schedule: Q04DX003 (ip), vehicle: Klucel (hydroxypropylcellulose) (HPC)) 93 % of control; (dose: 200.0 mg/kg/injection, schedule: Q04DX003 (ip), vehicle: Klucel (hydroxypropylcellulose) (HPC)) 90 % of control; (dose: 400.0 mg/kg/injection, schedule: Q04DX003 (ip), vehicle: Klucel (hydroxypropylcellulose) (HPC)) 93 % of control.

For `N#CC1=C(Nc2ccccc2Cl)SC(c2ccncc2)NC1=O` (stereo unspecified), the T/C is, setting by setting: under setting [2], 111 % of control; under setting [3], 105 % of control.

For `Nn1c(N/N=C\c2ccccc2)nnc1N/N=C/c1ccccc1`, the T/C by setting is: (dose: 50.0 mg/kg/injection, schedule: Q01DX001 (ip), vehicle: Klucel (hydroxypropylcellulose) (HPC)) 113 % of control; (dose: 100.0 mg/kg/injection, schedule: Q01DX001 (ip), vehicle: Klucel (hydroxypropylcellulose) (HPC)) 105 % of control.

In the case of `NC(=S)N/N=C/c1ccncc1`, the T/C by setting is: under setting [13], 108 % of control; under setting [14], 98 % of control; under setting [15], 101 % of control; under setting [16], 92 % of control.

Regarding `Cc1c(O)cccc1O`, the T/C under setting [4] is 105 % of control.

As for `Cc1ccn(C)c(=N)c1`, the T/C by setting is: under setting [14], 118 % of control; under setting [15], 100 % of control; under setting [16], 104 % of control.
